Experiment [1] can be described thus: cytotoxicity toward DRD oncogenic fibroblasts, dose response, cell-based, non-viral oncogenic, luminescence (AID 1934). The format is functional. The note with it: Homo sapiens.
Experiment [2] relates to HEK293. The experiment is described as follows: SAR Analysis of small molecule inhibitors of T-cell specific antigen receptor-induced NF-kB activation in a HEK-293T cell line using a luminescence assay - Set 2. [Related pubchem assays (depositor defined):AID435003, AID435012, AID489026]. The format is functional, cell-based. Particulars: Homo sapiens.
Experiment [3] can be described thus: cells. The class given is functional, cell-based.
Experiment [4] is described as follows: cytotoxicity in HEK-293T cells, dose response, cytotoxicity control for TCR NF-kB inhibitor project, luminescence, T-cell screen hits (AID 489026).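 Note: cells exposed to compound about 14 hours before the viability readout.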 The format is functional, cell-based.
Experiment [5] has as its target T1, Sentrin-specific protease 8 (Homo sapiens, UniProt Q96LD8).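 Note: luminescence read-out of SENP8 inhibition, dose-response confirmation following an ultra-high-throughput screen.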
T1 sequence (Q96LD8 whole entry): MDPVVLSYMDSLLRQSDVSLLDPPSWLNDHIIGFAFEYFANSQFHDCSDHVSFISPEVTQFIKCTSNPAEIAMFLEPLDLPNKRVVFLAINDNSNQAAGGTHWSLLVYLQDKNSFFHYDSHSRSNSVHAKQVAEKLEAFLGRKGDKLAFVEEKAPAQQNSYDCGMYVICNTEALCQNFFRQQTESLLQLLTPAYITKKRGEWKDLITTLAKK
The format is functional.

Experiment [6] has as its target T2, Heat shock factor protein 1 (Mus musculus, UniProt P38532).
T2 sequence (P38532 whole entry): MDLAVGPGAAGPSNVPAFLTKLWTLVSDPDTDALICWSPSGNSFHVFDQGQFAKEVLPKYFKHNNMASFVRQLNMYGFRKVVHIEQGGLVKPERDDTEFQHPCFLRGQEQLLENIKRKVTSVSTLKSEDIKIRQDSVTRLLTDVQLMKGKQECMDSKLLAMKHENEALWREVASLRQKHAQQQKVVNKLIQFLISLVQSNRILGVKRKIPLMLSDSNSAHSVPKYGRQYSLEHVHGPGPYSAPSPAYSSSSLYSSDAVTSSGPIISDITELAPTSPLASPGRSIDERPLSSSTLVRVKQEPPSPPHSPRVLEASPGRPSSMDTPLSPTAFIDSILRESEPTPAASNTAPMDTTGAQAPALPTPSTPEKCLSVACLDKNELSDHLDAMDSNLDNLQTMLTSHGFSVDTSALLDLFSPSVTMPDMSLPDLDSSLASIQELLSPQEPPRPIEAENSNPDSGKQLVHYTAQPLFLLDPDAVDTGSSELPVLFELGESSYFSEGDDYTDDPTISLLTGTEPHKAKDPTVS
The experiment is described as follows: inhibition of MG132-induced HSE-luciferase signal, confirmation, cell-based, NIH3T3, luminescence, dose retest (AID 2382).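 Note: NIH3T3 fibroblasts with HSF1-driven luciferase reporter stressed by proteasome inhibitor MG132; luminescence from HSF1-driven luciferase expression after 8 hours of MG132 stress.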 The format is functional.

The target in experiment [7] is T3, Sentrin-specific protease 6 (Homo sapiens, UniProt Q9GZR1).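 Note: Luminescence-based dose-response confirmatory assay of SENP6 inhibition, following up an ultra-high-throughput screen.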
T3 sequence (Q9GZR1 whole entry): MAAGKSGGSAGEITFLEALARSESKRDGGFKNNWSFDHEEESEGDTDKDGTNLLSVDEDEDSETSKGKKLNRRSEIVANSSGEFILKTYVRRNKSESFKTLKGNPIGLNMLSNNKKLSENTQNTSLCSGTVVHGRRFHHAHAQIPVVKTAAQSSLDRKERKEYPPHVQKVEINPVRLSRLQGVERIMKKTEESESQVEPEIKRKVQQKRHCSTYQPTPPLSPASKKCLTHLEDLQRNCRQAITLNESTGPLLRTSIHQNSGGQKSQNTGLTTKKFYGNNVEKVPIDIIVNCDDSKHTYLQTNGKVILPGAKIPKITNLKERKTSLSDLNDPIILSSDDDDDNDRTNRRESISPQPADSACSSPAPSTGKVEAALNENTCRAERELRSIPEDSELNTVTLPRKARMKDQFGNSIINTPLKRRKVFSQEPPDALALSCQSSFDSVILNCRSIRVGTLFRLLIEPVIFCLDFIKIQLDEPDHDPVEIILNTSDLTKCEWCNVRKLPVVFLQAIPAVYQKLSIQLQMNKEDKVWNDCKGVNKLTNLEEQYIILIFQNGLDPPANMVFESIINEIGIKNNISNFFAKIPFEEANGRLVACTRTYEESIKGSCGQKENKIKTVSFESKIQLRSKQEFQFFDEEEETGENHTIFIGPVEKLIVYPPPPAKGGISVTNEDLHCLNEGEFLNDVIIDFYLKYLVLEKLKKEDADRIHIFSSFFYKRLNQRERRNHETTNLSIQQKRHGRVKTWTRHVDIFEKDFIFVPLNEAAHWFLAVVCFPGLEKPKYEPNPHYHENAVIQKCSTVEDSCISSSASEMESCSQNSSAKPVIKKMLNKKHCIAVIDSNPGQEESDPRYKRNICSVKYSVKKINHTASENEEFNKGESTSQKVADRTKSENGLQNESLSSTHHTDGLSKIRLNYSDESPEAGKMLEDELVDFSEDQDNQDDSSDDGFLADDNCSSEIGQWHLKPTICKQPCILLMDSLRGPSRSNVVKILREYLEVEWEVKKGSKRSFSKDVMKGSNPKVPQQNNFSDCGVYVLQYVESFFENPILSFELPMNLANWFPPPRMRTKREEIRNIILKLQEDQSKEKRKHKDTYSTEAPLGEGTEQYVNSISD
The format is functional.

The source made the active and inactive calls.

As for `CCCCC(=O)NC(c1ccc(N(CC)CC)cc1)c1ccc2cccnc2c1O` (configuration not stated), the results for the EC50 in experiment [1] and in experiment [3] were 5.53 µM (active) and 3.08 µM (active), respectively. Further, the results for the 50% inhibitory concentration (IC50) in experiment [2] and in experiment [4] were 13 µM (active) and > 80 µM (inactive), respectively.

Regarding `CCOc1cccc(/C=N/NC(=S)Nc2ccccc2[N+](=O)[O-])c1O`, the IC50 – broadly, the midpoint of a concentration-inhibition curve – is 12.8 µM (active) in experiment [5] and 10.3 µM (active) in experiment [7]. Moreover, the EC50 (commonly the concentration needed to bring the measured effect to its halfway point) in experiment [6] was 3.56 µM (active).

These data come from ChEMBL document CHEMBL1201862, “PubChem BioAssay data set” (2004).
